Patent US11713307B2, “Heteroaryl-biphenyl amides for the treatment of PD-L1 diseases” (CHEMOCENTRYX, INC., priority 2019, dated 2023)

The compounds below were run against human PD-L1 (Homo sapiens (Human), UniProt Q9NZQ7) (assay: Enzyme-Linked Immunosorbent Assay—ELISA (PD-1/PD-L1 binding)). Settings: plates coated with human PD-L1; Human PD-1 and biotin added; absorbance at 450 nm.
human PD-L1, sequence (Q9NZQ7 19-239): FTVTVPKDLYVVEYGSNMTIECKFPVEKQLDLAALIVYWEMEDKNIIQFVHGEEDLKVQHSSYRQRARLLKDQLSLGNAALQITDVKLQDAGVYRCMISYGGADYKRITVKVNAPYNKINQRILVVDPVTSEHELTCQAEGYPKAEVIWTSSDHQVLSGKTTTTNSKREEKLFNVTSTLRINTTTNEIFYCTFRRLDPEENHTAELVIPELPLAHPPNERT
Experimental: 96 Well plates were coated with 1 μg/mL of human PD-L1 (obtained from R&D) in PBS overnight at 4° C. The wells were then blocked with 2% BSA in PBS (W/V) with 0.05% TWEEN-20 for 1 hour at 37° C. The plates were washed 3 times with PBS/0.05% TWEEN-20 and the compounds were serial diluted (1:5) in dilution medium and added to the ELISA plates. Human PD-1 and biotin 0.3 μg/mL (ACRO Biosystems) were added and incubated for 1 hour at 37° C. then washed 3 times with PBS/0.05% TWEEN-20. A second block was performed with 2% BSA in PBS (W/V)/0.05% TWEEN-20 for 10 min at 37° C. and the plates were washed 3 times with PBS/0.05% TWEEN-20. Streptavidin-HRP was added for 1 hour at 37° C. then the plates were washed 3 times with PBS/0.05% TWEEN-20. TMB substrate was added and reacted for 20 min at 37° C. A stop solution (2 N aqueous H2SO4) was added. The absorbance was read at 450 nm using a micro-plate spectrophotometer. The results are shown in Table 1: IC50 values are provided as follows: from 1000 to 10,000 nM (+); from 10 up to 1000 nM (++); less than 10 nM (+++).
`COc1nc(-c2cccc(-c3cccc(NC(=O)c4cn(C)c(=O)n(C)c4=O)c3Cl)c2Cl)cnc1CN[C@@H]1CCC(=O)NC1` [Compound 1.001] showed an IC50 of less than 10 nM.
With `COc1nc(-c2cccc(-c3cccc(NC(=O)c4cn(C)c(=O)n(C)c4=O)c3Cl)c2Cl)cnc1CN1CCCC[C@@H]1C(=O)O` [Compound 1.094] the IC50 was less than 10 nM.
For `COc1nc(-c2cccc(-c3cccc(NC(=O)c4cn(C)c(=O)n(C)c4=O)c3Cl)c2Cl)ccc1CN(C)C[C@@H]1CCC(=O)N1` [Compound 1.058], the IC50 was 10 to 1000 nM.
Compound `COc1nc(-c2cccc(-c3cccc(NC(=O)c4cn(C)c(=O)n(C)c4=O)c3C)c2Cl)ccc1CNC[C@@H]1CCC(=O)N1` [Compound 1.006] has an IC50 of less than 10 nM.
For `COc1nc(-c2cccc(-c3cccc(NC(=O)c4cn(C)c(=O)n(C)c4=O)c3C)c2Cl)ccc1CN1CC(C)(C(=O)O)C1` [Compound 1.053], the IC50 was less than 10 nM.
`COc1nc(-c2cccc(-c3cccc(NC(=O)c4cncn(C)c4=O)c3Cl)c2Cl)ccc1CNC[C@@H]1CCC(=O)N1` [Compound 1.060] showed an IC50 of less than 10 nM.
With `COc1cc(-c2cccc(-c3cccc(NC(=O)c4cn(C)c(=O)n(C)c4=O)c3Cl)c2Cl)ncc1CN1CC(C(=O)O)C1` [Compound 1.086] the IC50 was less than 10 nM.
In the case of `COc1nc(-c2cccc(-c3cccc(NC(=O)c4cn(C)c(=O)n(C)c4=O)c3C)c2Cl)ccc1CNCC(C)(C)O` [Compound 1.055], the IC50 is reported as less than 10 nM.
`COc1nc(-c2cccc(-c3cccc(NC(=O)c4cn(C)c(=O)n(C)c4=O)c3C)c2Cl)ccc1CNCC1(O)CC1` [Compound 1.022] showed an IC50 of 1000 to 10000 nM.
Work on `COc1nc(-c2cccc(-c3cccc(NC(=O)c4cn(C)c(=O)n(C)c4=O)c3C)c2Cl)ccc1CN(C)CCO` [Compound 1.052] yielded an IC50 of less than 10 nM.
`CCc1nc(-c2cccc(-c3cccc(NC(=O)c4cn(C)c(=O)n(C)c4=O)c3Cl)c2Cl)cnc1CNC[C@@H]1CCC(=O)N1` [Compound 1.077] gave an IC50 of less than 10 nM.
`COc1nc(-c2cccc(-c3cccc(NC(=O)c4cn(C)c(=O)n(C)c4=O)c3C)c2Cl)ccc1CNC[C@@H](C)O` [Compound 1.028] showed an IC50 of less than 10 nM.
In the case of `COc1nc(-c2cccc(-c3cccc(NC(=O)c4cn(C)c(=O)n(C)c4=O)c3Cl)c2Cl)ncc1CNC[C@@H]1CCC(=O)N1` [Compound 1.081], the IC50 is reported as less than 10 nM.
`COc1nc(-c2cccc(-c3cccc(NC(=O)c4c[nH]c(=O)n(C)c4=O)c3C)c2Cl)ccc1CNC[C@@H]1CCC(=O)N1` [Compound 1.065] showed an IC50 of less than 10 nM.
In the case of `COc1cc(-c2cccc(-c3cccc(NC(=O)c4cn(C)c(=O)n(C)c4=O)c3Cl)c2Cl)ncc1CNC[C@@H]1CCC(=O)N1` [Compound 1.093], the IC50 is reported as less than 10 nM.
`COc1nc(-c2cccc(-c3cccc(NC(=O)c4cn(C)c(=O)n(C)c4=O)c3Cl)c2Cl)cnc1CN1CC(C)(C(=O)O)C1` [Compound 1.099] gave an IC50 of less than 10 nM.
Compound `COc1nc(-c2cccc(-c3cccc(NC(=O)c4cn(C)c(=O)n(C)c4=O)c3C)c2Cl)ccc1CN[C@@H]1CCCC[C@@H]1O` [Compound 1.017] has an IC50 of less than 10 nM.
`COc1nc(-c2cccc(-c3cccc(NC(=O)c4cn(C)c(=O)n(C)c4=O)c3C)c2Cl)ccc1CNCC(C)(C)C(N)=O` [Compound 1.040] was tested, and the IC50 was less than 10 nM.
`CCc1nc(-c2cccc(-c3cccc(NC(=O)c4cn(C)c(=O)n(C)c4=O)c3C)c2Cl)ccc1CNC[C@@H]1CCC(=O)N1` [Compound 1.054] was tested, and the IC50 was less than 10 nM.
`COc1nc(-c2cccc(-c3cccc(NC(=O)c4cn(C)c(=O)n(C)c4=O)c3C)c2Cl)ccc1CNC[C@@H]1CCC(=O)N1C` [Compound 1.043] gave an IC50 of less than 10 nM.
For `COc1cc(-c2cccc(-c3cccc(NC(=O)c4cn(C)c(=O)n(C)c4=O)c3Cl)c2Cl)ncc1CN1CC(C)(C(=O)O)C1` [Compound 1.083], the IC50 was less than 10 nM.
`COc1nc(-c2cccc(-c3cccc(NC(=O)c4cn(C)c(=O)n(C)c4=O)c3C)c2Cl)ccc1CN1CC[C@@](C)(O)C1` [Compound 1.048] was tested, and the IC50 was less than 10 nM.
`COc1nc(-c2cccc(-c3cccc(NC(=O)c4cn(C)c(=O)n(C)c4=O)c3C)c2Cl)ccc1CNCCO` [Compound 1.056] gave an IC50 of less than 10 nM.
`COc1nc(-c2cccc(-c3cccc(NC(=O)c4cn(C)c(=O)n(C)c4=O)c3C)c2Cl)ccc1CN1CC(O)C1` [Compound 1.095] showed an IC50 of less than 10 nM.
`COc1nc(-c2cccc(-c3cccc(NC(=O)c4cn(C)c(=O)n(C)c4=O)c3Cl)c2Cl)ccc1CN1CC[C@@H](C(=O)O)C1` [Compound 1.074] showed an IC50 of less than 10 nM.
For `COc1nc(-c2cccc(-c3cccc(NC(=O)c4cn(C)c(=O)n(C)c4=O)c3C)c2Cl)ccc1CN1CC(C(C)(C)O)C1` [Compound 1.041], the IC50 was less than 10 nM.
With `COc1nc(-c2cccc(-c3cccc(NC(=O)c4cn(C)c(=O)n(C)c4=O)c3C)c2Cl)ccc1CNC(C)(C)CCO` [Compound 1.050] the IC50 was less than 10 nM.
`COc1nc(-c2cccc(-c3cccc(NC(=O)c4cn(C)c(=O)n(C)c4=O)c3C)c2Cl)cnc1CN[C@@H]1CCOC[C@@H]1O` [Compound 1.078] showed an IC50 of less than 10 nM.
`COc1nc(-c2cccc(-c3cccc(NC(=O)c4cn(C)c(=O)n(C)c4=O)c3C)c2Cl)ccc1CNCCC(C)(C)O` [Compound 1.023] showed an IC50 of less than 10 nM.
`COc1nc(-c2cccc(-c3cccc(NC(=O)c4cn(C)c(=O)n(C)c4=O)c3C)c2Cl)cnc1CNC[C@@H]1CCC(=O)N1` [Compound 1.079] showed an IC50 of less than 10 nM.
Work on `COc1nc(-c2cccc(-c3cccc(NC(=O)c4cn(C)c(=O)n(C)c4=O)c3C)c2Cl)ccc1CNC(C)C` [Compound 1.037] yielded an IC50 of less than 10 nM.
Work on `COc1nc(-c2cccc(-c3cccc(NC(=O)c4cn(C)c(=O)n(C)c4=O)c3C)c2Cl)ccc1CN1CC2(CCC(=O)N2)C1` [Compound 1.096] yielded an IC50 of less than 10 nM.
Compound `COc1nc(-c2cccc(-c3cccc(NC(=O)c4cn(C)c(=O)n(C)c4=O)c3C)c2C)ccc1CNC[C@@H]1CCC(=O)N1` [Compound 1.062] has an IC50 of less than 10 nM.
`CNCc1ccc(-c2cccc(-c3cccc(NC(=O)c4cn(C)c(=O)n(C)c4=O)c3C)c2Cl)nc1OC` [Compound 1.031] gave an IC50 of less than 10 nM.
`COc1nc(-c2cccc(-c3cccc(NC(=O)c4cn(C)c(=O)n(C)c4=O)c3C)c2Cl)ccc1CNC[C@@H]1CC(C)(C)C(=O)N1` [Compound 1.016] showed an IC50 of less than 10 nM.
`COc1nc(-c2cccc(-c3cccc(NC(=O)c4cn(C)c(=O)n(C)c4=O)c3Cl)c2Cl)cnc1CN1CC2(CCC(=O)N2)C1` [Compound 1.101] was tested, and the IC50 was less than 10 nM.
`CCc1nc(-c2cccc(-c3cccc(NC(=O)c4cn(C)c(=O)n(C)c4=O)c3Cl)c2Cl)ccc1CNC[C@@H]1CCC(=O)N1` [Compound 1.076] gave an IC50 of less than 10 nM.
`COc1nc(-c2cccc(-c3cccc(NC(=O)c4cn(C)c(=O)n(C)c4=O)c3C)c2Cl)ccc1CN1CCC(O)CC1` [Compound 1.046] showed an IC50 of less than 10 nM.
For `COc1nc(-c2cccc(-c3cccc(NC(=O)c4cn(C)c(=O)n(C)c4=O)c3Cl)c2Cl)ccc1CNC[C@@H](O)CO` [Compound 1.030], the IC50 was less than 10 nM.
`COc1nc(-c2cccc(-c3cccc(NC(=O)c4cn(C)c(=O)n(C)c4=O)c3C)c2Cl)ccc1CN[C@@H]1COC[C@@H]1O` [Compound 1.012] showed an IC50 of less than 10 nM.
`COc1nc(-c2cccc(-c3cccc(NC(=O)c4cn(C)c(=O)n(C)c4=O)c3Cl)c2Cl)cnc1CN1CC(C(=O)O)C1` [Compound 1.100] gave an IC50 of less than 10 nM.
Work on `COc1nc(-c2cccc(-c3cccc(NC(=O)c4cn(C)c(=O)n(C)c4=O)c3Cl)c2Cl)cnc1CN[C@@H]1CCOC[C@@H]1O` [Compound 1.005] yielded an IC50 of less than 10 nM.
In the case of `COc1nc(-c2cccc(-c3cccc(NC(=O)c4cn(C)c(=O)n(C)c4=O)c3C)c2Cl)ccc1CNCC1(C)CCC(=O)N1` (stereo not shown) [Compound 1.015], the IC50 is reported as less than 10 nM.
Compound `COc1nc(-c2cccc(-c3cccc(NC(=O)c4cn(C)c(=O)n(C)c4=O)c3Cl)c2Cl)cnc1CN1CC2(CCNC2=O)C1` [Compound 1.102] has an IC50 of less than 10 nM.
With `CCc1nc(-c2cccc(-c3cccc(NC(=O)c4cn(C)c(=O)n(C)c4=O)c3Cl)c2Cl)ccc1CN[C@@H]1CCOC[C@@H]1O` [Compound 1.075] the IC50 was less than 10 nM.
With `COc1nc(-c2cccc(-c3cccc(NC(=O)c4cn(C)c(=O)n(C)c4=O)c3Cl)c2Cl)cnc1CN1CCCC[C@H]1C(=O)O` [Compound 1.091] the IC50 was less than 10 nM.
With `CCOc1nc(-c2cccc(-c3cccc(NC(=O)c4cn(C)c(=O)n(C)c4=O)c3C)c2Cl)ccc1CNC[C@@H]1CCC(=O)N1` [Compound 1.047] the IC50 was less than 10 nM.
With `COc1nc(-c2cccc(-c3cccc(NC(=O)c4cn(C)c(=O)n(C)c4=O)c3C)c2Cl)ccc1CNC[C@@H](O)CO` [Compound 1.044] the IC50 was less than 10 nM.
`CCc1nc(-c2cccc(-c3cccc(NC(=O)c4cn(C)c(=O)n(C)c4=O)c3Cl)c2Cl)ccc1CN1CC(O)C1` [Compound 1.072] was tested, and the IC50 was 10 to 1000 nM.
`COc1nc(-c2cccc(-c3cccc(NC(=O)c4nn(C)c(=O)n(C)c4=O)c3Cl)c2Cl)ccc1CNC[C@@H]1CCC(=O)N1` [Compound 1.064] showed an IC50 of less than 10 nM.
Compound `COc1nc(-c2cccc(-c3cccc(NC(=O)c4cn(C)c(=O)n(C)c4=O)c3C)c2Cl)ccc1CNC[C@H](C)O` [Compound 1.029] has an IC50 of less than 10 nM.
For `COc1nc(-c2cccc(-c3cccc(NC(=O)c4cn(C)c(=O)n(C)c4=O)c3F)c2Cl)ccc1CNC[C@@H]1CCC(=O)N1` [Compound 1.059], the IC50 was less than 10 nM.
In the case of `COc1nc(-c2cccc(-c3cccc(NC(=O)c4cn(C)c(=O)n(C)c4=O)c3C)c2Cl)ccc1CN[C@@H]1CCC[C@@H]1O` [Compound 1.011], the IC50 is reported as less than 10 nM.
With `COc1nc(-c2cccc(-c3cccc(NC(=O)c4cn(C)c(=O)n(C)c4=O)c3C)c2Cl)ccc1CN[C@@H]1CNC(=O)C1` [Compound 1.007] the IC50 was less than 10 nM.
Work on `COc1nc(-c2cccc(-c3cccc(NC(=O)c4cn(C)c(=O)n(C)c4=O)c3Cl)c2Cl)ncc1CN[C@@H]1CCOC[C@@H]1O` [Compound 1.089] yielded an IC50 of less than 10 nM.
